Results published in PubChem BioAssay (NCI).
Several values for one entry are separate records, joined by “and”; a condition that tells them apart may be missing. Equal values may be shown once.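 Exposure lasted 48 hours, with cells grown in 96-well plates and compounds tested at five concentrations. GI50: concentration for 50% inhibition of growth. The concentration for full growth arrest is given as TGI.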

Columns and labels:
Assay in all cases: DTP human tumour cell line panel, 48 h
786-0 renal = tested on: 786-0 renal
A549 NSCLC = tested on: A549 NSCLC
COLO 205 colon = tested on: COLO 205 colon
HL-60(TB) leukemia = tested on: HL-60(TB) leukemia
IGROV1 ovarian = tested on: IGROV1 ovarian
KM12 colon = tested on: KM12 colon
MCF7 breast = tested on: MCF7 breast
OVCAR-4 ovarian = tested on: OVCAR-4 ovarian
SK-MEL-5 melanoma = tested on: SK-MEL-5 melanoma
SW-620 colon = tested on: SW-620 colon

Compound	GI50 (786-0 renal)	TGI (786-0 renal) [µM]	GI50 (A549 NSCLC)	TGI (A549 NSCLC) [µM]	GI50 (COLO 205 colon)	TGI (COLO 205 colon)	GI50 (HL-60(TB) leukemia) [µM]	TGI (HL-60(TB) leukemia) [µM]	GI50 (IGROV1 ovarian)	TGI (IGROV1 ovarian) [µM]	GI50 (KM12 colon) [µM]	TGI (KM12 colon) [µM]	GI50 (MCF7 breast)	TGI (MCF7 breast) [µM]	GI50 (OVCAR-4 ovarian) [µM]	TGI (OVCAR-4 ovarian) [µM]	GI50 (SK-MEL-5 melanoma)	TGI (SK-MEL-5 melanoma)	GI50 (SW-620 colon) [µM]	TGI (SW-620 colon) [µM]
Cn1cc(C2=C(c3cn(CCCCCN)c4ccccc34)C(=O)NC2=O)c2ccccc21	9.83 µM	> 25	10.1 µM	> 25	6.06 µM	> 21 µM	6.07	13.4	14.7 µM	> 25	17.8	> 25	5.51 µM	> 18	12.7	> 25	7.46 µM	> 19.7 µM	9.64	> 25
CC(C)N=c1cc2n(-c3ccc(Cl)cc3)c3ccccc3nc-2cc1Nc1ccc(Cl)cc1	1.52 µM and 3.12 µM	> 100	1.85 µM and 1.84 µM		1.17 µM and 1.41 µM	4.21 µM and 5.03 µM	1.04	2.46	0.586 µM and 0.296 µM	> 50	1.18	> 50	1.28 µM and 2.36 µM	> 100	1.29	> 100	0.634 µM and 1.28 µM	1.26 µM and 2.59 µM	2.96	> 100
Cc1cc(S(=O)(=O)N/N=C(\Sc2cc(Cl)c(C)cc2S(N)(=O)=O)c2ccc(Cl)cc2)c(Cl)cc1Cl	42.1 µM	> 100	36.6 µM	> 100	> 100 µM	> 100 µM	76.4	> 100	70.2 µM	> 100	> 100	> 100	42.8 µM	> 100	63.1	> 100	> 100 µM	> 100 µM	40.4	> 100
Cc1cc2c(cc1Cl)SC(=Nc1ccc(Cl)cc1)N(S(=O)(=O)c1ccccc1)S2(=O)=O	4.54 µM	18.1	13.7 µM	32.2	2.89 µM	> 100 µM	11.7	32.7	2.55 µM	31.7	20	50.4	6.05 µM	22.4	11	64.3	6.82 µM	19.2 µM	5.63	17.4
COc1ccc2[nH]c3c4c(ccc3c2c1)C(=O)C=CC4=O		24.2		62.8		15.6 µM		1.11		26.4		49.1		30.1		28.6		40.1 µM		6.63
CC1CCC(=O)C(C(=O)CC2CC(=O)NC(=O)C2)C1 (stereo not drawn)		> 100		> 100		> 100 µM		> 100		> 100		> 100		> 100		> 100		> 100 µM		> 100
O=C(Nc1ccc(CO)cc1)c1coc2ccccc2c1=O	> 100 µM	> 100	> 100 µM	> 100	> 100 µM	> 100 µM	> 100	> 100	> 100 µM	> 100	> 100	> 100	> 100 µM	> 100	> 100	> 100	> 100 µM	> 100 µM	> 100	> 100
COc1ccc2ncn(-c3cc(O[C@H](C)c4ccccc4Cl)c(C(N)=O)s3)c2c1	0.281 µM	8.27	0.0287 µM	> 25	0.00953 µM	0.436 µM	0.00849	2.81	0.0284 µM	> 25	0.00907	5.23	0.00895 µM	4.17	0.869	> 25	0.00951 µM	0.54 µM	0.00926	3.69
COc1ccc2c(c1)[C@@]13CCCC[C@H]1[C@@H](C2)N(C)CC3=O		32.8		41		31.2 µM		> 100		32.8		33.6		33.2		33.3		61 µM		
O=C(Nc1ccc(-n2cc(-c3ccncc3)c(-c3ccc(Cl)c(O)c3)n2)cc1)Nc1ccc(Cl)c(C(F)(F)F)c1	1.22 µM	3.11	2.21 µM	5.96	1.68 µM	3.7 µM	2.42	7.46	2.29 µM	4.96	1.47	3.01	2.12 µM	5.65	0.639	6.12	1.53 µM	2.95 µM	2.48	5.04
N#CC(=NCCO)C1=C(O)c2ccccc2C1=O		> 100		> 100		> 100 µM		> 100		> 100		> 100		> 100		> 100		> 100 µM		> 100
CCOC(=O)c1c[nH]c2oc(/C=N/N3CC(CN4CCOCC4)OC3=O)cc2c1=O (stereo not drawn)		> 100		> 100		> 100 µM		> 100		> 100		> 100		> 100		> 100		> 100 µM		> 100
COCCOc1cnc2ccn([C@H](C)c3nnc4c(F)cc(-c5cnn(C)c5)cn34)c(=O)c2c1	> 100 µM	> 100	> 100 µM	> 100	> 100 µM	> 100 µM	> 100	> 100	> 100 µM	> 100	24.4	> 100	> 100 µM	> 100	52	> 100	> 100 µM	> 100 µM	> 100	> 100
O=C(CSC(c1ccccc1)c1ccccc1)N/N=C/c1ccc(Cl)cc1Cl	40.1 µM	> 100	20.5 µM	51.1			24.4	55.1	19.9 µM	53.5	16.6	38.9	7.82 µM	29.2	38.8	> 100	18.1 µM	32.7 µM	42	> 100
COc1ccc2c(O)cc3c(c2c1)[C@H](CCl)CN3C(=O)c1cc2cc(NC(=O)CCN3CCOCC3)ccc2[se]1	< 0.001 µM	< 0.001			< 0.001 µM	> 10 µM	0.00142	> 10	< 0.001 µM	1.36	< 0.001		< 0.001 µM	1.39	< 0.001	0.783	< 0.001 µM	< 0.001 µM	< 0.001	1.05
